Patent publication US11844801B2, “Oral compositions of MK2 pathway inhibitor for treatment of immune conditions” (priority 2020, dated 2023)

How the values were obtained:
IL-6 [1] = assay: A549 IL-1β stimulated IL-6 assay; format: cell-based; settings: Homo sapiens, A549 cells, 1 ng/mL, 18 hr
Method: A549 IL-1β stimulated IL-6 Assay—A549 cells (American Type Culture Collection, […]) were grown in Ham's F-12K (Kaighn's) (Gibco, 21127-022) with penicillin-streptomycin (10 U/mL) (Gibco, 15140-122) and 10% fetal bovine serum (Gibco, 26140-079). Cells were grown to 80% confluence then trypsinized to remove cells. Cells were plated in 96 well flat bottom plates in complete media and allowed to recover overnight. Cells were pretreated for one hour in the presence of serially diluted compound or vehicle (0.5% DMSO) (Sigma-Aldrich, D2650) then stimulated with IL-1β (1 ng/mL) (R&D Systems, 201-LB-005) for 18 hours. Culture media was then collected for determination of IL-6 levels using Meso Scale Technology.

IL-6 [2] = assay: Rat whole blood LPS stimulated IL-6; format: cell-based; settings: 100 ng/mL, 4 hr
TNF-α = assay: Ex vivo LPS-stimulated TNF-α in blood of dosed healthy subjects, PK/PD inhibitory Emax model; design: species or system human
Method: Blood samples of 10 mL were collected for PD analysis. For the SAD cohorts, blood was collected before dosing and 1, 12, and 24 hours after dosing. For the MAD cohorts, on day 1 blood was collected before the morning dose and 4 and 12 hours after the morning dose (prior to the evening dose); on day 7, blood was collected before the morning dose and 4 and 12 hours after the morning dose.
Additional details of the assays for analyzing p-HSP27 and cytokines are included in the Supplementary Information.
Pharmacodynamics. PD data analysis was conducted using Microsoft Excel 2010 (Microsoft, Redmond, WA), Meso Scale Discovery Workbench® analysis software (Rockville, MD), and Phoenix WinNonlin, version 8.2.
Sample Preparation for Cytokine Analysis. For each sample, 180 μL aliquots were transferred into 7 wells of a round bottom 96 well tissue culture polystyrene low evaporation plate. […] No outer wells on the plates were used and all wells surrounding the samples contained 200 μL of phosphate buffered saline.
DMSO was added to all wells in groups ‘A’ and ‘C’ to a final concentration of 0.1% ([…] of a 2% DMSO solution in DMEM containing 10% FBS and 1% penicillin/streptomycin/glutamine). […] Samples were mixed gently for 30 seconds on a plate shaker using pin tools, then placed in an incubator at 37° C./5% CO2 for 1 hour.
Samples in groups ‘A’ and ‘B’ were stimulated with lipopolysaccharide at a final concentration of 100 ng/mL. A stock solution of lipopolysaccharide at 1 mg/mL in DMEM containing 10% FBS and 1% penicillin/streptomycin was diluted to […] in DMEM containing 10% FBS and 1% penicillin/streptomycin, and […] of this working solution was added per well of blood for all samples in groups ‘A’ and ‘B’. […] of DMEM containing 10% FBS only was added per well of blood for all samples in group ‘C’ (unstimulated samples). Samples were mixed gently for 30 seconds on a plate shaker using pin tools, then placed in an incubator at 37° C./5% CO2 for 5 hours.
Following the incubation, the plates were removed from the incubator and sealed with adhesive clear plate seals. The plates were then centrifuged for 10 minutes at 1800×g at room temperature. […] of plasma was removed from each well and transferred to a 96-well polypropylene round bottom master plate, which was then sealed and frozen at −80° C. until all samples from the respective cohort were generated. Once all samples from a given cohort were generated, the samples were analyzed for cytokine (TNF-α, IL-1b, IL-6, and IL-8) production using Meso Scale Discovery Technology.
Analysis of Cytokine Levels Using Meso Scale Discovery Technology. All lipopolysaccharide plasma samples were analyzed for cytokine production with a V-Plex Human Proinflammatory Panel II (4-Plex) Kit from Meso Scale Discovery (Rockville, MD). The master plates containing the plasma samples were thawed on ice, and a daughter plate consisting of a 25-fold dilution of each plasma sample (3 μL of plasma plus 72 μL of Meso Scale Discovery Diluent 2) was generated for each master plate. The diluted plasma samples from the daughter plates were used in the cytokine analysis. The Meso Scale Discovery 4-plex plates were washed 3 times with 150 μL/well of wash buffer (1×KPL phosphate buffered saline with Tween 20 from SeraCare [Milford, MA]). Prepared calibrators and the samples from the daughter plates were added to the washed Meso Scale Discovery 4-plex plates at 50 μL/well. The 4-plex plates were sealed and shaken overnight at 4° C.
After the overnight incubation, the samples were removed by decanting. The 4-plex plates were then washed 3 times with 150 μL/well of wash buffer. […]

[3] = system: IP10, IFNγ, IL-6, IL-8 and TNF-α; assay: Poly(I:C) (TLR3) stimulated cytokines and chemokines in human whole blood; format: cell-based; settings: poly(I:C) 100 μg/mL, 24 hours
Method: Human whole blood assays were performed as described above with the exceptions listed below. […] Compounds were serially diluted in 100% DMSO (Sigma-Aldrich, D2650) followed by a 25× dilution into DMEM/10% FBS (Gibco, 11965/26140). After the one-hour incubation with the compounds or vehicle, 20 μL of poly(I:C) (InvivoGen, HMW, tlrl-pic), in DPBS (Gibco, 14190-136) was added for a final concentration of 100 μg/mL to each well except for the no stimulus wells. After twenty-four hours of incubation with poly(I:C), plasma was harvested and assayed for IP10, IFNγ, IL-6, IL-8 and TNF-α using Meso Scale Discovery Technology V-plex human cytokine kits according to the kit protocol.

[4] = system: TNF-α, IL-1β, IL-6 and IL-8; assay: R848 (TLR7/TLR8) stimulated cytokines and chemokines in human whole blood; format: cell-based; settings: 5 h, R848 0.5 μg/mL, five hours
Method: Human whole blood assays were performed as described above with the exceptions listed below. […] Compounds were serially diluted in 100% DMSO (Sigma-Aldrich, D2650) followed by a 10× dilution into RPMI (Gibco, 11875). After the one-hour incubation with the compounds or vehicle, 2 μL of R848 (InvivoGen, tlrl-r848) in RPMI (Gibco, 11875) was added for a final concentration of 0.5 μg/mL to each well except for the no stimulus wells. After five hours of incubation with R848, plasma was harvested and assayed for TNF-α, IL-1β, IL-6 and IL-8 using Meso Scale Discovery Technology V-plex human cytokine kits according to the kit protocol.

Q: With `Cc1cnc(-c2ccnc(C(C)(C)O)n2)cc1-n1c(C)cc(OCc2ncc(F)cc2F)c(Cl)c1=O` (single isomer, unassigned) [ATI-450, 3-chloro-4-((3,5-difluoropyridin-2-yl)methoxy)-2′-(2-(2-hydroxypropan-2-yl)pyrimidin-4-yl)-5′,6-dimethyl-2H-[1,4′-bipyridin]-2-one] as the compound, how does the IC50 (IL-6 [1]) read?
A: 11.1 ± 7.6 nM

Q: What about the IC50 (IL-6 [2]) of the same compound?
A: 28.3 ± 1.2 nM

Q: And the “TNF-α inhibition versus baseline” value (TNF-α; 50 mg BID MAD cohort)?
A: up to 92.7%

Q: And the “Cmax (Multiple of IC80)” value (TNF-α; 50 mg BID, day 7)?
A: 3.5x

Q: And the “Ctrough (Multiple of IC80)” value (TNF-α; 50 mg BID, day 7)?
A: 1.4x

Q: What about the IC80 (TNF-α; Homo sapiens, calculated from IC50, combined SAD and MAD data, read-out: IC80, plasma concentration at 80% of maximal inhibition) of the same compound?
A: 0.0626 µg/mL

Q: And the IC50 (TNF-α; Homo sapiens, inhibitory Emax model, combined SAD and MAD data, read-out: IC50, plasma concentration at half maximal inhibition)?
A: 0.0156 µg/mL

Q: And the “IC80, plasma concentration at 80% of maximal inhibition” value (TNF-α; calculated from IC50, combined SAD and MAD data)?
A: 0.0626 µg/mL

Q: And the IC50 [3]?
A: 10 to 100 nM

Q: And the IC50 [4]?
A: ~100 nM
